ChEMBL document CHEMBL1201862, “PubChem BioAssay data set” (2004)
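How tested: cells in 96-well plates exposed to compound for 48 hours at five concentrations. At the GI50, growth is halved.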 Activity calls are given as the source filed them. Cut-off read from the data, not from the text of the source: active = GI50 up to about 1.1 µM and inactive = higher.

Columns and labels:
Experiment in all cases: DTP human tumour cell line panel, 48 h
CCRF-CEM = system: CCRF-CEM
COLO 205 = system: COLO 205
EKVX = system: EKVX
HCC 2998 = system: HCC 2998
HL-60 = system: HL-60
Hs-578T = system: Hs-578T
IGROV-1 = system: IGROV-1
LXFL 529 = system: LXFL 529
M14 = system: M14
NCI-H23 = system: NCI-H23
RPMI-8226 = system: RPMI-8226
RXF 393 = system: RXF 393
SF-268 = system: SF-268
SF-295 = system: SF-295
SK-MEL-5 = system: SK-MEL-5
SNB-75 = system: SNB-75
U-251 = system: U-251
UACC-62 = system: UACC-62
UO-31 = system: UO-31

Structure (SMILES)	GI50 (CCRF-CEM)	GI50 (COLO 205)	GI50 (EKVX)	GI50 (HCC 2998)	GI50 (HL-60)	GI50 (Hs-578T)	GI50 (IGROV-1)	GI50 (LXFL 529)	GI50 (M14)	GI50 (NCI-H23)	GI50 (RPMI-8226)	GI50 (RXF 393)	GI50 (SF-268)	GI50 (SF-295)	GI50 (SK-MEL-5)	GI50 (SNB-75)	GI50 (U-251)	GI50 (UACC-62)	GI50 (UO-31)
C=C1CC2OC2(C(=O)O[C@H]2CCC3[C@@H]4CCC5=CC(=O)CC[C@]5(C)C4CC[C@@]32C)C1=O (some centres not stated)	0.804 µM (active)	4.1 µM (inactive)	25.5 µM (inactive)	31.6 µM (inactive)	0.83 µM (active)	16.8 µM (inactive)	10.9 µM (inactive)	2.18 µM (inactive)	7.23 µM (inactive)	9.53 µM (inactive)	1.47 µM (inactive)	4.43 µM (inactive)	8.41 µM (inactive)	19.1 µM (inactive)	11.8 µM (inactive)	16.9 µM (inactive)	8.97 µM (inactive)	14.6 µM (inactive)	8.38 µM (inactive)
O=C(/C=C\c1ccc(Cl)c(Cl)c1)c1ccc(Cl)cc1Cl	4.1 µM (inactive)	> 10 µM (inactive)	23.4 µM (inactive)	16.7 µM (inactive)	4.73 µM (inactive)	–	18 µM (inactive)	2.26 µM (inactive)	21.9 µM (inactive)	0.65 µM (active)	3.18 µM (inactive)	16.1 µM (inactive)	21.6 µM (inactive)	18.6 µM (inactive)	14.9 µM (inactive)	17.1 µM (inactive)	11.9 µM (inactive)	18.5 µM (inactive)	> 10 µM (inactive)
